Tests used:
[1] = Optical properties of the fluorophores measured in ethanol, compared to ICG; format: physicochemical; conditions: for Φ^a (%): compared to ICG
How it was run: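 The fluorophores were measured in ethanol, alongside a reference dye. Recorded optical properties were absorption maximum, emission maximum, Stokes shift, quantum yield and molar extinction coefficient.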

[2] = Solvatochromism: absorption maximum in different solvents; format: physicochemical

In the case of `CCN1C(=CC=C2CCCC(C=C(C#N)C(=O)O)=C2N2CCC(CO)CC2)C(C)(C)c2ccccc21` [Compound 80], the “Stokes Shift (nm)” value [1] is reported as 101 nm, the “λabs (nm)” value [1] is reported as 685 nm and the “λem (nm)” value [1] is reported as 786 nm. For the same compound, the “ϵ (cm^−1 M^−1)” value [1] was 78,200 cm^−1 M^−1, the “Φ^a (%)” value [1] was 16.7% and the “λabs (nm) Acetonitrile” value [2] was 660 nm. The “λabs (nm) DMSO” value [2] was 690 nm, the “λabs (nm) Ethanol” value [2] was 685 nm and the “λabs (nm) Methanol” value [2] was 675 nm.

With `CCN1C(=CC=C2CCCC(C=C(C#N)C(=O)O)=C2Sc2ccncc2)C(C)(C)c2ccccc21` [Compound 77] the “Stokes Shift (nm)” value [1] was 15 nm, the “λabs (nm)” value [1] was 800 nm and the “λem (nm)” value [1] was 815 nm. For the same compound, the “ϵ (cm^−1 M^−1)” value [1] was 134,400 cm^−1 M^−1, the “Φ^a (%)” value [1] was 11.5% and the “λabs (nm) Acetonitrile” value [2] was 790 nm. The “λabs (nm) DMSO” value [2] was 810 nm, the “λabs (nm) Ethanol” value [2] was 800 nm and the “λabs (nm) Methanol” value [2] was 795 nm.

From patent US20250152751A1, “RED-SHIFTED FLUOROPHORES AND METHODS OF USING THE SAME” (GEORGIA STATE UNIVERSITY RESEARCH FOUNDATION, INC., priority 2022, published 2025)
